Results on 1 compound are retold here after PMC5527824 (Frontiers in bioscience (Scholar edition), 2015).

SMILES strings stand for the structures.

Series [1] relates to APPswe/PS1dE9 double transgenic AD mice. The following applies: cited from earlier work.
A short description of series [2]: short-term toxicity study in mice. In kind it is in vivo. To be noted: oral 2000 mg/kg bw, examined for 48 hr, outside laboratory.
Another series relates to R6/2 mouse. To be noted: R6/2 mice, cited from earlier work.
The test system of series [3] is aluminum chloride toxicity in mice. The following applies: oral 15 mg/kg bw; cited from earlier work.
In series [4] the test system is NF-κB coactivator CBP/p300. To be noted: human monocytes; cited from earlier work.
In series [5] the test system is APPswe/PS1dE9 double transgenic AD mice. To be noted: 0.05% in food, cited from earlier work.
Series [6] deals with rodent model of depression. The following applies: oral administration; cited from earlier work.
For series [7] the following is noted: cited from earlier work.
For series [8], the system named is mouse hippocampal HT22 cells. The following applies: cited from earlier work.
Another series has as its system 15-LOX. To be noted: rabbit reticulocytes; cited from earlier work.
The subject of a further series is nerve cell. The following applies: of ~30 flavonoids tested; cited from earlier work.

In the case of `O=c1c(O)c(-c2ccc(O)c(O)c2)oc2cc(O)ccc12` [fisetin, 3,3′,4′,7-tetrahydroxyflavone], the “production of PGD2, PGJ2 and 15d-PGD2” value in series [1] (AD mice study) was “increased production”. Besides, in [1] (AD mice treated with fisetin), the “ERK phosphorylation in the hippocampus” value is recorded as “increases in ERK phosphorylation”. For the same compound, in series [1] (AD mice, 0.05% in food), the “AD-increased production of thromboxanes TXB1 and TXB2” value is “partly prevented”; the “astrocyte area and intensity of GFAP staining in hippocampus” value is “largely reversed”. Moreover, the “brain levels of 5-HETE and 12-HETE” value in series [1] (AD mice) was “significantly reduce”. In addition, the “Aβ1–40 level in RIPA soluble fraction of hippocampus” value in [1] (ELISA, Aβ1–42 not reduced) is listed as “significantly reduce”. Moreover, in series [1] (fisetin-fed vs control AD mice), the “Aβ plaque loads in brain sections” value is reported as “No significant differences”. For the same compound, in series [2], the short-term toxicity entry was “No indications of toxicity”. Further, in the series with R6/2 mouse (0.05% in food from ~6 weeks of age, control diet 104 days), the median life span was 139 days. In addition, the rotorod performance result with R6/2 mouse (0.05% in food, at 9, 11 and 13 weeks (p < 0.01)) is “improved”. The “increase of median life span” value in the series with R6/2 mouse (0.05% in food, vs control diet) is recorded as ~ 30%. For the same compound, the “loss of total GSH from cortex and hippocampus” value in series [3] is given as “greatly reduce the loss of total GSH”. Moreover, the “activity of CBP/p300” value in series [4] is “suppress”. In addition, the swim speeds result in series [5] is given as “no effect”. Besides, the “MWM probe test, memory (time in platform quadrant)” value in [5] (AD mice 9 months of age) is given as “clear evidence of memory improvement”. Further, the “most effective dose at reducing immobility time” value in series [6] is reported as 20 mg/kg bw. Moreover, in [7], the chelation of iron result is listed as “efficient chelation”. For the same compound, the “reduction in the ability of fisetin to maintain cellular GSH levels” value in series [8] (siRNA to ATF4, basal and glutamate-induced oxidative stress conditions) is ~ 50%. The “effect of Nrf2 reduction on the ability of fisetin to maintain GSH levels” value in series [8] (siRNA to Nrf2, basal conditions) is given as “no effect”. Also, in [8] (siRNA to Nrf2, in the presence of oxidative stress), the “reduction in the ability of fisetin to maintain GSH” value is ~ 30%. For the same compound, the “inhibition of 15-LOX activity” value in the series with 15-LOX was “effective inhibitor”. Moreover, in the series with nerve cell, the “maintenance of GSH levels in the presence of oxidative stress” value is recorded as “able to maintain GSH levels”.
